Earlier results, collected in patent US20120252695A1 (Janssen R&D Ireland, priority 2009, published 2012).

Test system: HCV
Settings: carriers of two copies of the advantageous IL28B variant; multi-ethnic population

IFN-α
patients who cleared the virus and remained virus-free 24 weeks post-treatment: approximately 80%
